Literature values as cited in patent US20130108701A1, “Solid Dosage Forms of Antipsychotics” (priority 2010, published 2013).
Structures can show the parent of a compound that is named as a salt.

How the values were obtained:
[1] = not given; remark: listed apart in the source

aqueous solubility: relatively poor
permeability [1]: high
Structure (SMILES): O=C1Cc2cc(CCN3CCN(c4nsc5ccccc45)CC3)c(Cl)cc2N1 [Ziprasidone hydrochloride, 5-[2-[4-(1,2-benzisothiazol-3-yl)-1-piperazinyl]ethyl]-6-chloro-1,3-dihydro-2H-indol-2-one]
